In patent US10869924B2, “PD-L1 antagonist combination treatments” (MERCK PATENT GMBH, priority 2015, dated 2020):

Legend:
[1] = in vivo; cited from earlier work
[2] = test system: MC38 colon carcinoma; assay: Subcutaneous MC38 colon carcinoma model, anti-4-1BB and avelumab (Example 3); assay type: in vivo; conditions: anti-4-1BB 0.1 mg/mL, avelumab 1 mg/mL, 0.2 mL per mouse ip, 3 doses 3 to 4 days apart, C57BL/6 mice
Experimental: Six (6)- to 8-week old female C57BL/6 mice were purchased from the Jackson Laboratories. All animals were housed in a pathogen free vivarium facility at Rinat and experiments were conducted according to the protocols in accordance with the Institutional Animal Care and Use Committee (IACUC) guidelines.
The B16F10 melanoma cell line was purchased from American Type Culture Collection (ATCC). The MC38 colon carcinoma cell line was kindly provided by Dr. Antoni Ribas at University of California, Los Angeles, Calif. Cells were cultured in Dulbecco's Modified Eagle's Medium (DMEM) supplemented with 10% fetal bovine serum (FBS), 2 mM L-glutamine at 37° C. in 5% carbon dioxide (CO2), and IMPACT-tested for pathogens at Research Animal Diagnostic Laboratory (RADIL) (Columbia, Mo.). Pathogen-free cells growing in an exponential growth phase were harvested and used for tumor inoculation.
Therapeutic mouse anti-mouse 4-1BB mAb (mouse immunoglobulin G1 [mIgG1]), derived from the parental clone MAB9371 (R&D Systems), was prepared in-house. Avelumab was provided by Merck Serono. Isotype control mIgG1 (clone: MOPC-21) was purchased from BioXcell. Human IgG1 was prepared in-house. Anti-4-1BB and avelumab were diluted to concentrations of 0.1 mg/mL and 1 mg/mL, respectively, in phosphate buffered saline (PBS) (Life Technologies), and dosed at 0.2 mL per mouse intraperitoneally (ip) for 3 doses 3 to 4 days apart.
C57BL/6 mice were inoculated subcutaneously at the right flank with 0.2×10^6 B16F10 or 0.5×10^6 MC38 cells in 0.1 mL of serum-free DMEM. When tumors reached target size, mice were randomized into treatment groups. Treatment was started on the same day as randomization. Tumor size was measured twice weekly in 2 dimensions using a caliper, and the volume was expressed in cubic millimeters using the formula: V=0.5 L×W^2 where L is the longest diameter of the tumor and W is the diameter perpendicular to L. Body weight was recorded weekly.
Results were expressed as mean±SEM. Statistical analyses were performed using GraphPad Prism 6.0. One-way or 2-way ANOVA was applied to compare the statistical differences among multiple groups relative to the isotype control. P<0.05 was considered as significant difference.
In the MC38 colon carcinoma model, the average starting tumor size was approximately 60 mm^3 (range 41-92 mm^3; n=10 animals per group) (Table 6). At the end of study (Day 23 post tumor implantation), the average tumor volumes of isotype, anti-4-1BB alone, avelumab alone, and anti-4-1BB antibody/avelumab combination groups were 1177±252 mm^3, 1093±183 mm^3, 901±206 mm^3, and 530±190 mm^3, respectively (Table 6). The reduction in tumor size by the combination treatment was significant, compared to the isotype control (p<0.001) and 4-1BB alone groups (p<0.01), but not to the avelumab group (p>0.05) (Table 6).

[3] = test system: MC38 tumors; assay: Flow cytometry of tumor-infiltrating lymphocytes from MC38 tumors after treatment (Example 3); assay type: in vivo, mouse; conditions: TILs isolated from MC38 tumors after treatment
Description: Antibodies used for cell surface or intracellular staining were purchased from BD Biosciences or eBioscience. They were rat anti-mouse CD4-PerCP-Cy5.5 (clone RM4-5, BD Biosciences), rat anti-mouse CD8a-APC-H7 (clone 53-6.7, BD Biosciences), rat anti-mouse CD25-PE-Cy7 (clone PC61, BD Biosciences), rat anti-mouse CD45-BV510 (clone 30-F11, BD Biosciences), rat anti-mouse CD90.2-FITC (clone 53-2.1, BD Biosciences), rat anti-mouse Eomes-PE (clone: Dan11mag, eBioscience), rat anti-mouse FoxP3-eFluor450 (clone FJK-16s, eBioscience), and rat anti-mouse NKp46-BV421 or -AF647 (clone 29A1.4, BD Biosciences). Live cells were separated from dead cells using LIVE/DEAD Fixable Blue Dead Cell Stain Kit (Invitrogen). […]
An aliquot of cells was pre-incubated with 10 μg/mL of mouse BD Fc Block (BD Biosciences) for 10 minutes before phenotyping mAbs were added to specifically stain immune cells. […] After removing unbound mAbs, cells were washed twice with FACS staining buffer, fixed in fixative buffer (PBS+2% FBS+1% paraformaldehyde), and stored at 4° C. in the dark until analyzed by flow cytometry. […] Flow cytometry data were acquired using LSR Fortessa (BD Biosciences) and analyzed using FlowJo (TreeStar Inc.).
Results were expressed as mean±SEM. […]
Tumor-infiltrating lymphocytes (TILs) were isolated from MC38 tumors after treatment and analyzed for markers associated with anti-tumor immune response. […]

Substance: Avelumab: fully human mAb of the IgG1 isotype that specifically targets and blocks PD-L1
- half-life [1]: 72 to 120 h
- Tumor Measurements of Subcutaneous MC38 Colon Carcinoma, Mean tumor volume ([2]; Day 7 post tumor implantation (starting tumor size)): 63 mm^3
- Tumor Measurements of Subcutaneous MC38 Colon Carcinoma, Mean tumor volume ([2]; Day 10 post tumor implantation): 127 mm^3
- Tumor Measurements of Subcutaneous MC38 Colon Carcinoma, Mean tumor volume ([2]; Day 14 post tumor implantation): 254 mm^3
- Tumor Measurements of Subcutaneous MC38 Colon Carcinoma, Mean tumor volume ([2]; Day 16 post tumor implantation): 384 mm^3
- Tumor Measurements of Subcutaneous MC38 Colon Carcinoma, Mean tumor volume ([2]; Day 18 post tumor implantation): 523 mm^3
- Tumor Measurements of Subcutaneous MC38 Colon Carcinoma, Mean tumor volume ([2]; Day 21 post tumor implantation): 714 mm^3
- Tumor Measurements of Subcutaneous MC38 Colon Carcinoma, Mean tumor volume ([2]; Day 23 post tumor implantation (end of study)): 901 mm^3
- Tumor Measurements of Subcutaneous MC38 Colon Carcinoma, Mean tumor volume ([2]; Day 23 post tumor implantation (end of study), listed as avelumab): 901±206 mm^3
- ratio of CD8+ T cells/regulatory T cell (Treg) ([3]; FIG. 2): 2.5
- T-cell frequency (of CD45+ cells) in tumors ([3]; average, FIG. 1): 36%
